Blank lines part the entries; values can stand above or below the compound they belong to.
Assays:
[1] = molecular target: Transient receptor potential cation channel subfamily V member 1 (Homo sapiens) (UniProt Q8NER1); experiment: Inhibition of TRPV-1 (unknown origin) at 12.5 uM relative to control
[2] = test system: HaCaT; experiment: Anti-inflammatory activity in LPS-stimulated human HaCaT cells assessed as reduction of IL-6 expression at 12.5 uM; type: functional; set-up: scale not given: the % may be the effect or the level left
[3] = test system: Neutrophil; experiment: Inhibition of fMLF/CB-induced human Neutrophil activation assessed as reduction in elastase release using MeO-Suc-Ala-Ala-Pro-Val-pnitroanilide as substrate pre-incubated for 2 mins followed by fMLF/CB-stimulation and measured for 5 mins; type: functional, cell-based
[4] = test system: RAW264.7; experiment: Anti-inflammatory activity against mouse RAW264.7 cells assessed as inhibition of TNF-alpha production incubated for 18 hrs by ELISA analysis; type: functional, cell-based; conditions: RAW264.7, 18 h
[5] = test system: RAW264.7; experiment: Anti-inflammatory activity against mouse RAW264.7 cells assessed as inhibition of IL-1beta level incubated for 18 hrs by ELISA analysis; type: functional, cell-based; conditions: RAW264.7, 18 h
[6] = test system: Rattus norvegicus; experiment: Anti-inflammatory activity in LPS-induced Sprague-Dawley rat assessed as reduction in TNF-alpha level at 20 mg/kg, po pre-incubated for 1 hr with compound followed by LPS-stimulation measured for 24 hrs by ELISA analysis; type: functional; set-up: scale not given: the % may be the effect or the level left; conditions: time 25 hrs
[7] = test system: Rattus norvegicus; experiment: Anti-inflammatory activity in LPS-induced Sprague-Dawley rat assessed as reduction in IL-1beta level at 20 mg/kg, po pre-incubated for 1 hr with compound followed by LPS-stimulation measured for 24 hrs by ELISA analysis; type: functional; set-up: scale not given: the % may be the effect or the level left; conditions: time 25 hrs
[8] = test system: J774.A1; experiment: Antiinflammatory activity against mouse J774.A1 cells assessed as inhibition of LPS-stimulated TNF-alpha level by ELISA method; type: functional, cell-based; conditions: Mus musculus, J774.A1; read-out: IC50
[9] = test system: J774.A1; experiment: Antiinflammatory activity against mouse J774.A1 cells assessed as inhibition of LPS-stimulated IL-1beta level by ELISA method; type: functional, cell-based
[10] = test system: RAW264.7; experiment: Antiinflammatory activity against mouse RAW264.7 cells assessed as inhibition of LPS-stimulated TNF-alpha level by ELISA method; type: functional, cell-based
[11] = test system: RAW264.7; experiment: Antiinflammatory activity against mouse RAW264.7 cells assessed as inhibition of LPS-stimulated IL-1beta level by ELISA method; type: functional, cell-based
[12] = test system: RAW264.7; experiment: Anti-inflammatory activity against mouse RAW264.7 cells assessed as inhibition of LPS-induced NO production pre-treated with compound for 1 hr followed by LPS-stimulation and measured for 1 hr; type: functional, cell-based
[13] = test system: RAW264.7; experiment: Anti-inflammatory activity against mouse RAW264.7 cells assessed as inhibition of LPS-induced NO production pre-incubated for 1 hr followed by compound addition and measured after 18 hrs by Griess reagent based analysis; type: functional, cell-based
[14] = Anti-inflammatory activity in carrageenan-induced human PBMC cells assessed as inhibition of IL-beta leakage at 10 uM measured for 24 hrs relative to control; type: functional; set-up: scale not given: the % may be the effect or the level left
[15] = test system: Rattus norvegicus; experiment: Anti-inflammatory activity against carrageenan-induced paw edema in Wistar rat assessed as reduction in paw edema at 100 mg/kg, po measured after 3 hrs relative to control; type: functional; set-up: scale not given: the % may be the effect or the level left
[16] = test system: Rattus norvegicus; experiment: Anti-inflammatory activity against carrageenan-induced paw edema in Wistar rat assessed as reduction in paw edema at 100 mg/kg, po measured after 1 hrs relative to control; type: functional; set-up: scale not given: the % may be the effect or the level left
[17] = test system: Mus musculus; experiment: Anti-inflammatory activity against xylene-induced ear edema Swiss mouse model assessed as inhibition of ear edema at 0.25 ug/ml, po measured after 6 hrs relative to control; type: functional; set-up: scale not given: the % may be the effect or the level left; conditions: dose 0.25 µg/ml
[18] = test system: Mus musculus; experiment: Anti-inflammatory activity against xylene-induced ear edema Swiss mouse model assessed as inhibition of ear edema at 0.025 ug/ml, po measured after 6 hrs relative to control; type: functional; set-up: scale not given: the % may be the effect or the level left; conditions: dose 0.025 µg/ml
[19] = test system: Neutrophil; experiment: Inhibition of fMLF/CB-induced human Neutrophil activation assessed as reduction in elastase release at 10 uM relative to control; type: functional; set-up: scale not given: the % may be the effect or the level left
[20] = molecular target: T1, Neutrophil elastase (Homo sapiens, UniProt P08246); experiment: Inhibition of human Neutrophil elastase; type: cell-based
T1 sequence (P08246 whole entry): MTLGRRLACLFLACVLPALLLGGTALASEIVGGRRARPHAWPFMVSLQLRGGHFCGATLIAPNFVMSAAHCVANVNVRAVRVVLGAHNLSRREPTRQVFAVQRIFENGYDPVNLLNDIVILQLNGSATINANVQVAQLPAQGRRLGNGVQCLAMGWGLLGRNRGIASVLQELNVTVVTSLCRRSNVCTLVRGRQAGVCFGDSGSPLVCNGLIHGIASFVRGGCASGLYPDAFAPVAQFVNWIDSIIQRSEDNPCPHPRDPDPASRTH

[21] = test system: BV-2; experiment: Anti-inflammatory activity against LPS-induced mouse BV-2 cells assessed as reduction in Interleukin-1beta production at 10 uM pre-incubated for 30 mins followed by LPS-stimulation and measured after 6 hrs by RT-PCR analysis; type: functional; set-up: scale not given: the % may be the effect or the level left; conditions: time 390 min, 6.5 h
[22] = test system: BV-2; experiment: Anti-inflammatory activity against LPS-induced mouse BV-2 cells assessed as inhibition of 5-lipoxygenase level at 25 microg/ml pre-incubated for 30 mins followed by LPS-stimulation and measured after 6 hrs by RT-PCR analysis; type: functional; set-up: scale not given: the % may be the effect or the level left; conditions: dose 25 µg/ml; time 390 min; 6.5 h
[23] = test system: BV-2; experiment: Anti-inflammatory activity against LPS-induced mouse BV-2 cells assessed as inhibition of COX-2 level at 12.5 microg/ml pre-incubated for 30 mins followed by LPS-stimulation and measured after 6 hrs by RT-PCR analysis; type: functional; set-up: scale not given: the % may be the effect or the level left; conditions: dose 12.5 µg/ml; time 390 min; 6.5 h
[24] = test system: BV-2; experiment: Anti-inflammatory activity against LPS-induced mouse BV-2 cells assessed as reduction in IL-6 production at 10 uM pre-incubated for 30 mins followed by LPS-stimulation and measured after 6 hrs by RT-PCR analysis; type: functional; set-up: scale not given: the % may be the effect or the level left; conditions: time 390 min, 6.5 h
[25] = test system: RAW264.7; experiment: Anti-inflammatory activity against mouse RAW264.7 cells assessed as inhibition of LPS-induced NO production; type: functional, cell-based
[26] = test system: Neutrophil; experiment: Inhibition of fMLF-induced chemotaxis in human neutrophils pretreated for 45 mins followed by fMLF-stimulation measured for 1 hr by luminescence based analysis; type: functional, cell-based
[27] = test system: Mus musculus; experiment: Analgesic activity against acetic acid-induced BALB/c writhing mouse model assessed as inhibition of writhing at 10 mg/kg, ip pre-incubated for 30 mins followed by acetic acid addition and measured after 15 mins relative to control; type: functional; set-up: scale not given: the % may be the effect or the level left; conditions: time 45 min, 0.75 h
[28] = test system: Mus musculus; experiment: Antiinflammatory activity in carrageenan-induced Kunming mouse model of paw edema assessed as paw volume at 1 mg/kg, ip pre-incubated for 1 hr followed by carrageenan administration measured for 60 mins relative to control; type: functional; conditions: time 2 hrs
[29] = test system: Mus musculus; experiment: Antiinflammatory activity against TPA-induced CD-1 mouse ear edema model assessed as reduction in ear edema at 0.25 mg/kg relative to control; type: functional; set-up: scale not given: the % may be the effect or the level left
[30] = test system: Mus musculus; experiment: Antiinflammatory activity against TPA-induced CD-1 mouse ear edema model assessed as reduction in ear edema; type: functional, organism-based
[31] = test system: Rattus norvegicus; experiment: Anti-inflammatory activity against LPS-induced paw edema in Sprague-Dawley rat assessed as inhibition of paw edema; type: functional

Chain of Transient receptor potential cation channel subfamily V member 1 (Homo sapiens) (Q8NER1 whole entry): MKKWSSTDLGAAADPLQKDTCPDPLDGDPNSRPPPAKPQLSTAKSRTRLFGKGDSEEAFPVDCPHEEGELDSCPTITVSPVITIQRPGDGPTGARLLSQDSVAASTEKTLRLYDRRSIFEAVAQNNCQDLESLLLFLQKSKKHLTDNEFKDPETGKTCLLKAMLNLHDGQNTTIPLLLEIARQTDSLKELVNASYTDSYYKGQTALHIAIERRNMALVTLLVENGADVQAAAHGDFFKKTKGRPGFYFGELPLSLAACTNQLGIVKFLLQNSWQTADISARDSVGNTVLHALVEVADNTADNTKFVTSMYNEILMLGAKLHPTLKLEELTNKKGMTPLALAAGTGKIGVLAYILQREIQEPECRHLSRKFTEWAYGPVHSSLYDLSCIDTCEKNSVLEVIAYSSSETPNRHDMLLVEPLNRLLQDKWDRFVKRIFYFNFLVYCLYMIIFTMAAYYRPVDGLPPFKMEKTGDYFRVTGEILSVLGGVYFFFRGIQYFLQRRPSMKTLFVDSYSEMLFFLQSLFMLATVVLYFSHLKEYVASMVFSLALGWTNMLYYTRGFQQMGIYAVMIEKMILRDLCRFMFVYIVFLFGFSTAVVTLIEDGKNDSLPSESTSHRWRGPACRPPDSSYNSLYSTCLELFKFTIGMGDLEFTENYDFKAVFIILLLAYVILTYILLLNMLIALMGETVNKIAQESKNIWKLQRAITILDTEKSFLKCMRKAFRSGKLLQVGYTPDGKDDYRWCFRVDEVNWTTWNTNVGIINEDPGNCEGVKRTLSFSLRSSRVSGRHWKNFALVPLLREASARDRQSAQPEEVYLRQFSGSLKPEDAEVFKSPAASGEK

SMILES: COc1cc(O)c2c(=O)cc(-c3ccc(O)c(O)c3)oc2c1
inhibition [1]: 33% | Activity [2]: 52% | IC50 [3]: ≤ 15.2 µM

SMILES: COc1cc(O)c2c(c1)OC(c1ccccc1)CC2=O (stereo unspecified)
IC50 [4]: < 22 µM | IC50 [5]: 40 µM | Activity [6]: 48.6% | Activity [7]: 53.1% | IC50 [8]: 37.5 µM | IC50 [9]: 19.6 µM | IC50 [10]: 23.5 µM | IC50 [11]: 17.3 µM

SMILES: CC(C)=CCC/C(C)=C/Cc1c(O)ccc2c1O[C@H](c1ccc(O)cc1)CC2=O
IC50 [12]: 8.13 µM

SMILES: COc1ccc(-c2cc(=O)c3c(O)c(OC)c(O)cc3o2)cc1OC [EUPATILIN]
ID50 [31]: 0.28 umol/cm2

Further lines, with some results ahead:

IC50 [13]: 2.4 µM
SMILES: CC(C)=CCC/C(C)=C/Cc1c(C2CC(=O)c3c(cc(O)c(CC=C(C)C)c3O)O2)ccc(O)c1O (stereo unspecified)

IC50 [20]: 0.35 µM
SMILES: COc1ccc(-c2cc(=O)c3c(O)c(OC)c(OC)c(OC)c3o2)cc1OC [5-DEMETHYLNOBILETIN]
Activity [14]: 24.8% | Activity [15]: 47% | Activity [16]: 65% | Activity [17]: 41% | Activity [18]: 79% | Activity [19]: 89%

IC50 [25]: 12.2 µM
SMILES: O=c1cc(-c2ccc(O)cc2)oc2cc(O)cc(O)c12 [APIGENIN]
Activity [21]: 68% | Activity [22]: 88.3% | Activity [23]: 89.2% | Activity [24]: 68%

IC50 [26]: 2.25 µM
SMILES: O=c1cc(-c2ccccc2)oc2cc(O)cc(O)c12 [CHRYSIN]
Activity [27]: 56% | Activity [28]: 25%

IC50 [30]: 0.72 µM
SMILES: O=C1C[C@@H](c2ccc(O)c(O)c2)Oc2cc(O)cc(O)c21 [ERIODICTYOL]
Activity [29]: 56.3%

Reference: ChEMBL document CHEMBL5543059, “Discovery of anti-inflammatory natural flavonoids: Diverse scaffolds and promising leads for drug discovery” (Eur J Med Chem, 2023)
